# Reference: US20240215577A1, “FUNGICIDAL PYRIDONES” (FMC Corporation, priority 2021, published 2024)
# Experiments:
# Type in all cases: in vivo
# Details in all cases: 100 = 100% disease control, 0 = no control
# [1] = system: Botrytis cinerea; experiment: Test E: tomato Botrytis, preventive spray on tomato seedlings
# From the text: (§1) General protocol for preparing test suspensions for Tests A-F: the test compounds were first dissolved in acetone in an amount equal to 3% of the final volume and then suspended at the desired concentration (in ppm) in acetone and purified water (50/50 mix by volume) containing 250 ppm of the surfactant PEG400 (polyhydric alcohol esters). The resulting test suspensions were then used in Tests A-F.
# The test suspension was sprayed to the point of run-off on tomato seedlings. The following day the seedlings were inoculated with a spore suspension of Botrytis cinerea (the causal agent of tomato Botrytis) and incubated in a saturated atmosphere at 20° C. for 48 h, and then moved to a growth chamber at 24° C. for 3 days, after which time visual disease ratings were made.
# (§2) A rating of 100 indicates 100% disease control and a rating of 0 indicates no disease control (relative to the controls). A dash (-) indicates the compound was not tested.
# [2] = system: Puccinia recondita f. sp. tritici; experiment: Test B: wheat leaf rust, preventive spray on wheat seedlings
# From the text: as §1
# The test solution was sprayed to the point of run-off on wheat seedlings. The following day the seedlings were inoculated with a spore suspension of Puccinia recondita f. sp. tritici (the causal agent of wheat leaf rust) and incubated in a saturated atmosphere at 20° C. for 24 h, and then moved to a growth chamber at 20° C. for 7 days, after which time visual disease ratings were made.
# as §2
# [3] = system: Zymoseptoria tritici; experiment: Test A: wheat leaf blotch, preventive spray on wheat seedlings
# From the text: as §1
# The test solution was sprayed to the point of run-off on wheat seedlings. The following day the seedlings were inoculated with a spore suspension of Zymoseptoria tritici (the causal agent of wheat leaf blotch) and incubated in a saturated atmosphere at 24° C. for 48 h, and then moved to a growth chamber at 20° C. for 17 days, after which time disease ratings were made.
# as §2
# [4] = system: Blumeria graminis f. sp. tritici; experiment: Test C: wheat powdery mildew, preventive spray on wheat seedlings
# From the text: as §1
# The test suspension was sprayed to the point of run-off on wheat seedlings. The following day the seedlings were inoculated with a spore dust of Blumeria graminis f. sp. tritici, (also known as Eysiphe graminis f. sp. tritici, the causal agent of wheat powdery mildew) and incubated in a growth chamber at 20° C. for 8 days, after which time visual disease ratings were made.
# as §2
# [5] = system: Phakopsora pachyrhizi; experiment: Test D: Asian soybean rust, preventive spray on soybean seedlings
# From the text: as §1
# The test solution was sprayed to the point of run-off on soybean seedlings. The following day the seedlings were inoculated with a spore suspension of Phakopsora pachyrhizi (the causal agent of Asian soybean rust) and incubated in a saturated atmosphere at 22° C. for 24 h and then moved to a growth chamber at 22° C. for 8 days, after which time visual disease ratings were made.
# as §2
# [6] = system: Alternaria solani; experiment: Test F: tomato early blight, preventive spray on tomato seedlings
# From the text: as §1
# The test suspension was sprayed to the point of run-off on tomato seedlings. The following day the seedlings were inoculated with a spore suspension of Alternaria solani (the causal agent of tomato early blight) and incubated in a saturated atmosphere at 27° C. for 48 h, and then moved to a growth chamber at 20° C. for 3 days, after which time visual disease ratings were made.
# as §2
# [7] = Botrytis cinerea, 50 ppm, read-out: Test E disease control rating
# [8] = Puccinia recondita, 50 ppm, read-out: Test B disease control rating
# [9] = Zymoseptoria tritici, 50 ppm, read-out: Test A disease control rating
# [10] = Blumeria graminis, 50 ppm, read-out: Test C disease control rating
# [11] = Phakopsora pachyrhizi, 216 h, 50 ppm, read-out: Test D disease control rating
# [12] = Alternaria solani, 50 ppm, read-out: Test F disease control rating
SMILES,Test E disease control rating ([1]; 50 ppm),Test B disease control rating ([2]; 50 ppm),Test A disease control rating ([3]; 50 ppm),Test C disease control rating ([4]; 50 ppm),Test D disease control rating ([5]; 50 ppm),Test F disease control rating ([6]; 50 ppm),further results
Cn1cc(-c2cc(F)ccc2Cl)c(-c2ccc(F)cc2Cl)c(Cl)c1=O [Compound 1],98%,100%,100%,0%,0%,46%,–
Cn1cc(-c2cc(F)ccc2Cl)c(-c2ccc(F)cc2Cl)c(I)c1=O [Compound 2],91%,98%,100%,0%,0%,33%,–
"COc1cc(OC)cc(-c2cn(C)c(=O)c(Cl)c2-c2ccc(F)cc2Cl)c1 [Compound 3, 3-chloro-4-(2-chloro-4-fluorophenyl)-5-(3,5-dimethoxyphenyl)-1-methyl-2(11)-pyridinone]",100%,100%,99%,0%,65%,100%,–
"COc1cc(OC)c(Cl)c(-c2cn(C)c(=O)c(Cl)c2-c2ccc(F)cc2Cl)c1 [Compound 4, 3-chloro-5-(2-chloro-3,5-dimethoxyphenyl)-4-(2-chloro-4-fluorophenyl)-1-methyl-2(1H)-pyridinone]",–,–,–,–,–,–,"pest or weed control at 50 ppm [1, 7]: 100%; pest or weed control at 50 ppm [2, 8]: 100%; pest or weed control at 50 ppm [3, 9]: 100%; pest or weed control at 50 ppm [4, 10]: 98%; pest or weed control at 50 ppm [5, 11]: 99%; pest or weed control at 50 ppm [6, 12]: 100%"
"COc1cc(-c2cn(C)c(=O)c(Cl)c2-c2ccc(F)cc2Cl)cc(OC)c1Cl [Compound 5, 3-chloro-5-(4-chloro-3,5-dimethoxyphenyl)-4-(2-chloro-4-fluorophenyl)-1-methyl-2(1H)-pyridinone]",–,–,–,–,–,–,"pest or weed control at 250 ppm ([1]; Botrytis cinerea, 250 ppm, read-out: Test E disease control rating): 98%; pest or weed control at 250 ppm ([2]; Puccinia recondita, 250 ppm, read-out: Test B disease control rating): 100%; pest or weed control at 250 ppm ([3]; Zymoseptoria tritici, 250 ppm, read-out: Test A disease control rating): 100%; pest or weed control at 250 ppm ([4]; Blumeria graminis, 250 ppm, read-out: Test C disease control rating): 0%; pest or weed control at 250 ppm ([5]; Phakopsora pachyrhizi, 216 h, 250 ppm, read-out: Test D disease control rating): 78%; pest or weed control at 250 ppm ([6]; Alternaria solani, 250 ppm, read-out: Test F disease control rating): 99%"
COc1cccc(-c2c(-c3ccc(F)cc3Cl)c(C#N)c(=O)n(C)c2C)c1 [Compound 6],–,–,–,–,–,–,Test E disease control rating ([1]; 250 ppm): 0%; Test B disease control rating ([2]; 250 ppm): 0%; Test A disease control rating ([3]; 250 ppm): 0%; Test C disease control rating ([4]; 250 ppm): 89%; Test D disease control rating ([5]; 250 ppm): 0%; Test F disease control rating ([6]; 250 ppm): 0%
COc1cccc(-c2cn(C)c(=O)c(Cl)c2-c2ccc(F)cc2F)c1 [Compound 8],–,–,–,–,–,–,Test E disease control rating ([1]; 250 ppm): 99%; Test B disease control rating ([2]; 250 ppm): 100%; Test A disease control rating ([3]; 250 ppm): 100%; Test C disease control rating ([4]; 250 ppm): 98%; Test D disease control rating ([5]; 250 ppm): 81%; Test F disease control rating ([6]; 250 ppm): 99%
CCCOc1ccc(Cl)c(-c2cn(C)c(=O)c(Cl)c2-c2ccc(F)cc2F)c1 [Compound 10],94%,99%,99%,79%,0%,0%,–
Cn1cc(-c2ccccc2)c(-c2c(F)cccc2F)c(Cl)c1=O [Compound 11],97%,80%,99%,0%,0%,94%,–
COc1cc(OC)cc(-c2cn(C)c(=O)c(C)c2-c2ccc(F)cc2Cl)c1 [Compound 12],92%,99%,100%,40%,83%,99%,–
Cn1cc(-c2cc(F)ccc2Cl)c(-c2ccc(F)cc2Cl)c(C#N)c1=O [Compound 14],96%,100%,100%,0%,0%,0%,–
Cn1cc(-c2ccccc2Cl)c(-c2ccc(F)cc2Cl)c(Cl)c1=O [Compound 15],88%,100%,100%,69%,0%,0%,–
Cn1cc(-c2ccc(F)cc2Cl)c(-c2c(F)cccc2F)c(Cl)c1=O [Compound 16],96%,97%,100%,0%,68%,31%,–
Cn1cc(-c2ccc(F)cc2)c(-c2c(F)cccc2F)c(Cl)c1=O [Compound 17],98%,99%,100%,0%,75%,100%,–
Cc1c(-c2ccc(F)cc2Cl)c(-c2cc(F)ccc2Cl)cn(C)c1=O [Compound 18],98%,100%,100%,94%,96%,99%,–
"COc1cc(OC)cc(-c2cn(OC)c(=O)c(Cl)c2-c2ccc(F)cc2Cl)c1 [Compound 19, 3-chloro-4-(2-chloro-4-fluorophenyl)-5-(3,5-dimethoxyphenyl)-1-methoxy-2(1H)-pyridinone]",–,–,–,–,–,–,"pest or weed control at 50 ppm [1, 7]: 98%; pest or weed control at 50 ppm [2, 8]: 99%; pest or weed control at 50 ppm [3, 9]: 58%; pest or weed control at 50 ppm [4, 10]: 0%; pest or weed control at 50 ppm [5, 11]: 11%; pest or weed control at 50 ppm [6, 12]: 0%"
COc1ccc(Cl)c(-c2cn(C)c(=O)c(Cl)c2-c2ccccc2Br)c1 [Compound 67],91%,–,99%,56%,73%,33%,–
